Results as given in EP0579622B1, “NEW PHENOL ETHERS, PROCESS FOR PRODUCING THE SAME AND MEDICAMENTS CONTAINING THESE COMPOUNDS” (BOEHRINGER MANNHEIM GMBH, priority 1991, dated 1992).
pIC50: −log10 of the molar value.

Legend:
LDL = test: Inhibition of Cu++-dependent LDL oxidation (TBARS formation); assay type: biochemical; settings: 10 µM Testsubstanz, 125 µg/ml LDL-protein + 10 µM Cu++, 37° C
Method: (§1) Die neuen Phenolether wirken LDL-protektiv. Bei Inkubation des LDL it Redoxmetallen hemmen sie die Bildung von thiobarbitursäure-reaktiven Lipidperoxiden (Tab. 1), bei der Oxidation des LDL durch Lipoxydase wird eine selektive Hemmwirkung deutlich (Tab. 2). Unter Testbedingungen, die zu einem wirksamen LDL-Schutz führen, wird die Cholesterinesterbildung in kultivierten Makrophagen gehemmt (Tab. 3).
125 µg/ml LDL-protein + 10 µM Cu⁺⁺ wurden bei 37° C in 2 ml TN-Puffer (20 mM Tris ph 8, 150 mM NaCl) in An- und Abwesenheit von 10 µM Testsubstanz inkubiert. Die Bildung von LDL-Oxidationsprodukten wurde anhand thiobarbitursäurereaktiver Substanzen (TBARS) bei OD532 16 und 23 Stunden nach Beginn der Inkubation gemessen. Tabelle 2

[1] = test system: arteriosklerotischen Arterienwandgewebe; test: Reduction of LDL catabolism in arteriosclerotic arterial wall tissue (131J-TDS-LDL incorporation); assay type: in vivo; settings: cholesterol-fed Kaninchen, 0.2 % Testsubstanz in diet for 10 Tage, 24 Stunden after LDL infusion, thorakale Aorta; mean ± SEM (range); control 65.7 ± 3.9
Excerpt: Beim arteriosklerotischen Kaninchen ist die Wirkung der neuen Phenolether direkt am arteriosklerotischen Plaque nachzuweisen. 131I-TDS-LDL, ein Radioiod-LDL, das von den Zellen nach oxydativer Modifikation aufgenommen wird, akkumuliert nach i.v. Gabe massiv im Plaquegewebe. Die neuen Phenolether hemmen signifikant und massiv den LDL-Katabolismus und damit die Cholesterinüberladung der Arterienwandzellen. Daraus resultiert langfristig die Hemmung des Wachstums der Läsionen (Tab. 4).
Jeweils 6 Kaninchen in der Kontrollgruppe und Bsp.l-Gruppe, bzw. 3 Kaninchen in der Probucol-Gruppe für 3 Monate mit 0.5 % Cholesterin-fettreicher Kaninchendiät gefüttert. Die Tiere der verschiedenen Gruppen haben S-Cholspiegel von 1028±99 (771-1358) - 1155±200 (655-1787) mg % am Ende der Fütterungsphase und- ein Körpergewicht von 3050-3680 g erreicht. Die Tiere erhalten dann für 10 Tage 0.2 % Testsubstanz in der fettreichen Diät und anschließend eine Infusion von ¹³¹J-Deoxysorbitol-LDL. Der Einbau von ¹³¹J-Deoxysorbitol in den Arterienwandzellen erfolgt ganz überwiegend in der arteriosklerotischen Läsion und ermöglicht die Quantifizierung des LDL-Umsatzes in den Zellen. 24 Stunden nach der Infusion des LDL werden die Tiere getötet und die thorakale Aorta präpariert. […]

[2] = test system: P388D.1 murine Makrophagen; test: Inhibition of LDL-oxidation-dependent cholesterol ester formation in P388 macrophages; assay type: cell-based; settings: 10 µm test substance, 18 Stunden, control without LDL 0.44, control + LDL 1.81
Method: as §1
125 µg/ml LDL-Protein wurde in F 10-Medium +1 µM Cu⁺⁺ für 5 Stunden inkubiert, um LDL-Antioxidantien zu depletieren. Dann wurden P388D.1 murine Makrophagen (1 x 10⁶ Zellen/ml) in F 10-Medium + 10 % FCS für 18 Stunden mit diesem Ansatz weiter inkubiert. Unter diesen Versuchsbedingungen bleibt das Verhältnis freies Cholesterin (FC)/Protein konstant bei 0.2 µg/mg, während die Cholesterinester in Abhängigkeit von LDL im Medium in den P388D.1 Makrophagen ansteigen, hier ausgedrückt als Anstieg des Verhältnisses von Cholesterinester/freiem Cholesterin […]. Tabelle 4

Lipoxydase aus Sojabohne = biological target: T1, Lipoxydase aus Sojabohne (Glycine max, UniProt P08170); test: Inhibition of LDL oxidation by lipoxydase (diene formation at A 234); assay type: biochemical; settings: 100 µg LDL-Protein, 500 U/ml Lipoxydase, 37° C, 0-10 µM Testsubstanz, diene formation over 3 h
T1 construct: purchased Sigma, München
T1 sequence (P08170 1-839): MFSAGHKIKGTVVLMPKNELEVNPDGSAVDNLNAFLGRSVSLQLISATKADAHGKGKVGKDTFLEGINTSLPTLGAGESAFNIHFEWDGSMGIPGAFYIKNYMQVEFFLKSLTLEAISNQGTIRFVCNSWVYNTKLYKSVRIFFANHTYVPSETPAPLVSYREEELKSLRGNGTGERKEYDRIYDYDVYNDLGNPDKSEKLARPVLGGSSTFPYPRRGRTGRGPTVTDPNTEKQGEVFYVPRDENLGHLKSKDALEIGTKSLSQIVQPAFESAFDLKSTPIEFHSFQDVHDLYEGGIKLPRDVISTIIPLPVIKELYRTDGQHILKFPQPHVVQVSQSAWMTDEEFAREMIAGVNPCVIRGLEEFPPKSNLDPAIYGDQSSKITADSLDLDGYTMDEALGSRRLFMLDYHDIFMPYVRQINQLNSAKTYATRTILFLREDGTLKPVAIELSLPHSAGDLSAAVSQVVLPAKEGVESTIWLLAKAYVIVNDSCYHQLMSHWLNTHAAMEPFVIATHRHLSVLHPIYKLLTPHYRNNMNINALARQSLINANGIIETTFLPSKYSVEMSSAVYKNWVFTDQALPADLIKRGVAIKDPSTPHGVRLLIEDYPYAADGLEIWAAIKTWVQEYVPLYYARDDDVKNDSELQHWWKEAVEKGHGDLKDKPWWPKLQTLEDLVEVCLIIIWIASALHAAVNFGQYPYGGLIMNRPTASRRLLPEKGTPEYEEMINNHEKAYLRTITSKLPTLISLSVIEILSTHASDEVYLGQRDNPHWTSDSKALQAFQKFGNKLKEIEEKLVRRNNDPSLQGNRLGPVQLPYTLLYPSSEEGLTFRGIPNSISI
Method: (Tab. 2). […] Die Bildung von […] aus der Oxidation […] des LDL wird bei A 234 über 3 h verfolgt und ist im Kontrollansatz ca. 0.075/h. Die Inhibition der Dienbildung dient als Maß der Lipoxydaseaktivität am LDL-substrat.

| Compound | TBARS (OD 532) % (LDL; 16 Std., control 75) | TBARS (OD 532) % (LDL; 23 Std., control 100) | Einbau von 131J-TDS-LDLnorm±SEM ng/(mm³xdt/2) [1] | CE/FC [2] | pIC50 (Lipoxydase aus Sojabohne) |
| --- | --- | --- | --- | --- | --- |
| CC(C)(Sc1cc(C(C)(C)C)c(O)c(C(C)(C)C)c1)Sc1cc(C(C)(C)C)c(O)c(C(C)(C)C)c1 [Probucol, 4,4'[Isopropylidendithio]-bis(2,6-di-tert.-butyl), reference compound] | 56% | 88% | 84 ± 7.5 (40-144) ng/(mm³xdt/2) | 0.52 µg/µg |  |
| CC(C)(C)c1cc(OCCCOc2cc(C(C)(C)C)c(O)c(C(C)(C)C)c2)cc(C(C)(C)C)c1O [Bsp. 1, 1,3-Bis-[4-hydroxy-3,5-di-tert.butyl-phenoxy]propan] | 19% | 76% | 35 ± 1,9 (7-63) ng/(mm³xdt/2) | 0.48 µg/µg | 7.30 |
